Data on 17 compounds can be found in patent US9260418B2, “Pyranyl aryl methyl benzoquinolinone M1 receptor positive allosteric modulators” (Merck Sharp & Dohme Corp., priority 2009, dated 2016).

The target of the test is T1, acetylcholine muscarinic M1 receptor (Homo sapiens, UniProt P11229).
T1 construct: expressed in transfected cells; host or cells: CHOnfat cells (CHO), under Geneticin selection; b382 calls them CHOK1/hM1
T1 sequence (P11229 1-460): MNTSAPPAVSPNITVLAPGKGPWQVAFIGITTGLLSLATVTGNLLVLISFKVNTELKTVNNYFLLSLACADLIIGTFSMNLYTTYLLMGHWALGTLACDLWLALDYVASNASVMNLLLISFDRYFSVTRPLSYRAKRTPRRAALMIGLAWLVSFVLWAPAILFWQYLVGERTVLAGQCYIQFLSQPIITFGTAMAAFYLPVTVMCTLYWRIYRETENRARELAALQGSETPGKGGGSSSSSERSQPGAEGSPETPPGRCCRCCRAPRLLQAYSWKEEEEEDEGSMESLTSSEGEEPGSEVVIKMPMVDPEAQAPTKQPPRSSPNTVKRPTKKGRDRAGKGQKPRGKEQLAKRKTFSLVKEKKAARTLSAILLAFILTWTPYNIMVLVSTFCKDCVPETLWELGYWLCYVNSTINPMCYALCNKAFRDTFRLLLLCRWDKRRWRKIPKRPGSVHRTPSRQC
Briefly: muscarinic FLIPR intracellular calcium assay, potentiation of EC20 acetylcholine in CHOnfat/hM1 cells. In kind it is cell-based. The settings on record: inflection point calculated from FLIPR values, 4 min preincubation, then EC20 acetylcholine (3 nM final), read-out: IP Value. The method, then: The assay studies the effect of one or several concentrations of test compounds on basal or acetylcholine-stimulated Ca^2+ levels using FLIPR.
Compounds are prepared and subjected to a preincubation period of 4 min. Thereafter, a single EC20 concentration of acetylcholine is added to each well (3 nM final). The intracellular Ca^2+ level of each sample is measured and compared to an acetylcholine control to determine any modulatory activity.
Cells: CHOnfat/hM1, hM2, hM3 or hM4 cells are plated 24 hr before the assay at a density of 18,000 cells/well (100 μL) in a 384 well plate. CHOnfat/hM1 and CHOnfat/hM3 Growth Medium: 90% DMEM (Hi Glucose); 10% HI FBS; 2 mM L-glutamine; 0.1 mM NEAA; Pen-Strep; and 1 mg/ml Geneticin, are added. For M2Gqi5CHOnfat and M4Gqi5CHOnfat cells, an additional 600 ug/ml hygromycin is added.
Equipment: 384 well plate, 120 μL addition plate; 96-well Whatman 2 ml Uniplate Incubator, 37° C., 5% CO2; Skatron EMBLA-384 Plate Washer; Multimek Pipetting System; Genesis Freedom 200 System; Mosquito System; Temo Nanolitre Pipetting System; and FLIPR^384 Fluorometric Imaging Plate Reader System are used.
Buffers. Assay Buffer: Hanks Balanced Salt Solution, with 20 mM Hepes, 2.5 mM Probenecid (Sigma P-8761) first dissolved in 1 N NaOH, 1% Bovine Serum Albumin (Sigma A-9647). Dye Loading Buffer: Assay Buffer plus 1% Fetal Bovine Serum and Fluo-4AM/Pluronic Acid Mixture. 2 mM Fluo-4AM ester stock in DMSO (Molecular Probes F-14202) Concentration of 2 μM in buffer for a final concentration of 1 μM in Assay. 20% Pluronic Acid Solution stock, with concentration of 0.04% in Buffer, 0.02% in Assay.
65 μL of 2 mM Fluo-4AM are mixed with 130 μL of 20% Pluronic Acid. The resulting solution and 650 μL FBS is added to the assay buffer for a total volume of 65 mL. Positive Controls: 4-Br-A23187: 10 mM in DMSO; final concentration 10 μM. Acetylcholine: 10 mM in water, working stock at both 20 μM and 30 μM in assay buffer, final concentration of 10 μM. This is used to check the maximum stimulation of the CHOK1/hM1 cells. 20 μM (2×) acetylcholine is added in the preincubation part of the assay, and the 30 μM (3×) stock is added in the second part. (EC20)Acetylcholine: 10 mM in water, working stock of 9 nM (3×), and final concentration in assay is 3 nM. This is used after the preincubation with test compounds. Addition of the EC20 Acetylcholine to each well with a test compound will ascertain any modulator activity. 24 wells contain 3 nM Acetylcholine alone as a control.
Screening Plate: Compounds are titrated in 96-well plates (columns 2-11), 100% DMSO, started at a concentration of 15 mM (150× stock concentration), and 3-fold serial dilutions using Genesis Freedom200 System. Four 96-well plates are combined into a 384-well plate using Mosquito Nanolitre Pipetting System by transferring 1 μl of serial diluted compounds to each well, and 1 mM acetylcholine (100× stock concentration) were added as a control. Using Temo, 49 μl assay buffer is added to each well of the 384-well plate right before assay.
In a 96-well Whatman 2 ml Uniplate, 9 nM Acetylcholine (3×) is pipetted into wells corresponding to the screening compounds, and into control wells. The 30 μM acetylcholine control (3×) is added into control wells, and the 3× agonist plate is transferred into a 384 well plate.
Cells are washed three times with 100 μL of buffer, leaving 30 μL of buffer in each well. Using Multimek, 30 μL of Dye Loading Buffer is added into each well and incubated at 37° C., 5% CO2 for up to one hr.
After 60 min, the cells are washed three times with 100 μL of buffer, leaving 30 μL of buffer in each well. The cell plate, screening plate, and agonist addition plates are placed on the platform in the FLIPR and the door closed. A signal test to check background fluorescence and basal fluorescence signal is performed. Laser intensity is adjusted if necessary. […]

Take `O=c1c2cc(Cc3ccc(-c4cscn4)nc3)c3ccccc3c2ncn1[C@H]1CCOC[C@@H]1O` [Example 13, 3-[(3R,4S)-3-Hydroxytetrahydro-2H-pyran-4-yl]-6-{[6-(1,3-thiazol-4-yl)pyridine-3-yl]methyl}benzo[h]quinazolin-4(3H)-one]: the EC50 was 0.0058 µM.

Consider `Cc1ccc(-c2ccc(Cc3cc4c(=O)n([C@H]5COCC[C@@H]5O)cnc4c4ccccc34)cn2)cn1` [Example 34, 3-[(3S,4S)-4-Hydroxytetrahydro-2H-pyran-3-yl]-6-[(6′-methyl-2,3-bipyridin-5-yl)methyl]benzo[h]quinazolin-4(3H)-one], for which the EC50 is 0.0071 µM.

In the case of `CC(=O)N1CC[C@H](n2cnc3c(cc(Cc4ccc(Cl)nc4)c4ccccc43)c2=O)[C@@H](O)C1` (racemic) [Example 36, rac-3-[(3R,4R)-1-acetyl-3-hydroxypiperidin-4-yl]-6-[(6-chloropyridin-3-yl)methyl]benzo[h]quinazolin-4(3H)-one], the EC50 is 0.12 µM. In the case of `O=c1c2cc(Cc3ccnc(OC(F)F)c3)c3ccccc3c2ncn1[C@H]1CCOC[C@@H]1O` [Example 30, 6-{[2-(Difluoromethoxy)pyridine-4-yl]methyl}-3-[(3R,4S)-3-hydroxytetrahydro-2H-pyran-4-yl]benzo[h]quinazolin-4(3H)-one], the EC50 is 0.077 µM. The result for `O=c1c2cc(Cc3ccc(Cl)nc3)c3ccccc3c2ncn1C1CCNCC1` [Example 37, 6-[(6-Chloropyridin-3-yl)methyl]-3-piperidin-4-ylbenzo[h]quinazolin-4(3H)-one] reads 4.8 µM; that for `CN(C)C(=O)c1ccc(Cc2cc3c(=O)n([C@H]4CCOC[C@@H]4O)cnc3c3ccccc23)cn1` [Example 19, 5-({3-[(3R,4S)-3-Hydroxytetrahydro-2H-pyran-4-yl]-4-oxo-3,4-dihydrobenzo[h]quinazolin-6-yl}methyl)-N,N-dimethylpyridine-2-carboxamide], 0.318 µM. Regarding `COC(C)(C)c1ccc(Cc2cc3c(=O)n([C@H]4CCOC[C@@H]4O)cnc3c3ccccc23)cn1` [Example 20, 3-[(3R,4S)-3-Hydroxytetrahydro-2H-pyran-4-yl]-6-{[6-(1-methoxy-1-methylethyl)pyridine-3-yl]methyl}benzo[h]quinazolin-4(3H)-one], the EC50 was 0.045 µM. As to `O=c1c2cc(Cc3ccc(N4CCOCC4)cc3)c3ccccc3c2ncn1[C@H]1CCOC[C@@H]1O` [Example 12, 3-[(3R,4S)-3-Hydroxytetrahydro-2H-pyran-4-yl]-6-(4-morpholin-4-ylbenzyl)benzo[h]quinazolin-4(3H)-one], the EC50 is 0.021 µM. With `O=C(O)c1ccc(Cc2cc3c(=O)n([C@H]4CCOC[C@@H]4O)cnc3c3ccccc23)cn1` [Example 18, 5-({3-[(3R,4S)-3-Hydroxytetrahydro-2H-pyran-4-yl]4-oxo-3,4-dihydrobenzo[h]quinazolin-6-yl}methyl)pyridine-2-carboxylic acid], the EC50 is 0.124 µM.

On to `Cn1cc(Br)c2c(Cc3cc4c(=O)n([C@H]5CCOC[C@@H]5O)cnc4c4ccccc34)ccnc21` [Example 31, 6-[(3-Bromo-1-methyl-1H-pyrrolo[2,3-b]pyridine-4-yl)methyl]-3-[(3R,4S)-3-hydroxytetrahydro-2H-pyran-4-yl]benzo[h]quinazolin-4(3H)-one], for which the EC50 is 0.275 µM. The result for `O=c1c2cc(Cc3ccc(Cl)[n+]([O-])c3)c3ccccc3c2ncn1[C@H]1CCOC[C@@H]1O` [Example 14, 6-[(6-Chloro-1-oxidopyridin-3-yl)methyl]-3-[(3R,4S)-3-hydroxytetrahydro-2H-pyran-4-yl]benzo[h]quinazolin-4(3H)-one] reads 0.059 µM.

Consider `O=c1c2cc(Cc3cccnc3)c3ccccc3c2ncn1[C@H]1CCOC[C@@H]1O` [Example 6], for which the EC50 is 0.023 µM. The result for `O=c1c2cc(Cc3cc[n+]([O-])c(Cl)c3)c3ccccc3c2ncn1[C@H]1CCOC[C@@H]1O` [Example 24, 6-[(2-Chloro-1-oxidopyridin-4-yl)methyl]-3-[(3R,4S)-3-hydroxytetrahydro-2H-pyran-4-yl]benzo[h]quinazolin-4(3H)-one] reads 0.058 µM. The result for `CC(=O)c1ccc(Cc2cc3c(=O)n([C@H]4CCOC[C@@H]4O)cnc3c3ccccc23)cn1` [Example 10, 6-[(6-Acetylpyridin-3-yl)methyl]-3-[(3R,4S)-3-hydroxytetrahydro-2H-pyran-4-yl]benzo[h]quinazolin-4(3H)-one] reads 0.03 µM; that for `C[S+]([O-])c1ccc(Cc2cc3c(=O)n([C@H]4CCOC[C@@H]4O)cnc3c3ccccc23)cn1` (stereo partly drawn) [Example 17, 3-[(3R,4S)-3-Hydroxytetrahydro-2H-pyran-4-yl]-6-{[6-(methylsulfinyl)pyridine-3-yl]methyl}benzo[h]quinazolin-4(3H)-one], 0.09 µM; that for `O=c1c2cc(Cc3ccc(O)nc3)c3ccccc3c2ncn1[C@H]1CCOC[C@@H]1O` [Example 28, 6-[(6-Hydroxypyridin-3-yl)methyl]-3-[(3R,4S)-3-hydroxytetrahydro-2H-pyran-4-yl]benzo[h]quinazolin-4(3H)-one], 0.027 µM. With `O=c1c2cc(Cc3ccc(CF)nc3)c3ccccc3c2ncn1[C@H]1CCOC[C@@H]1O` [Example 22, 6-{[6-(Fluoromethyl)pyridine-3-yl]methyl}-3-[(3R,4S)-3-hydroxytetrahydro-2H-pyran-4-yl]benzo[h]quinazolin-4(3H)-one], the EC50 is 0.023 µM.
